Data as given in patent US11957656B2, “Methods of treating Prader-Willi syndrome” (The Trustees of Columbia University in the City of New York, priority 2016, dated 2024).
Read-outs that look alike come from different tables or passages of the source.

Legend:
[1] = test system: PDE4; settings: cited from earlier work
[2] = cited from earlier work
[3] = test system: adenylate cyclase (AC) isoforms; settings: cited from earlier work
[4] = test system: PCSK1 transcript; experiment: PCSK1 transcript levels in iPSC-derived neurons; assay type: cell-based, human
Experimental: FIGS. 6A-F are graphs showing that application of phosphodiesterase inhibitors to iPSC-derived neurons increases PCSK1 transcript levels and prohormone processing. […] FIGS. 6B-C: Roflumilast increases PCSK1 transcript levels in iPSC-derived neurons at Day 40 of differentiation (1043D3 line) at […] concentration. […] FIG. 6F: MK0952 applied at 10 μM in combination with 1 μM Forskolin increases PCSK1 transcript levels ˜2-fold in iPSC-derived neurons (1043D3 line).
Forskolin was applied to various cellular models and the results illustrate that it robustly and reliably increases PCSK1 transcript levels, PC1 protein levels, and functionally increases prohormone processing. PCSK1/Pcsk1 transcript levels increased between 2-3 fold in iPSC-derived neurons and primary mouse neurons exposed to 10 μM Forskolin (FIGS. 5A, C, D).
(§1) Cyclic AMP concentrations increased about 8.5-fold in iPSC-derived hypothalamic ARC neurons exposed to 10 μM Forskolin, supporting the inference that application of Forskolin increases PCSK1 transcript levels by raising cellular cAMP levels which in turn activate PCSK1's cAMP-response element promoter. FIG. 5A is a graph showing primary forebrain neurons were isolated from gestational day 19.5 (E19.5) embryos of wild type mice and cultured for 72 hours. Subsequently, cells were exposed to either 10 μM Forskolin or its vehicle, dimethyl sulfoxide (DMSO) for 20 hours. Pcsk1 transcript increased ˜2.5-fold in primary neurons exposed to Forskolin. FIG. 5B is a graph showing unaffected control hypothalamic arcuate-like (ARC) neurons (Hes Nkx2-1 hESC line) at day 37 (D37) of differentiation were treated with 10 μM Forskolin or vehicle for thirty minutes. Cyclic adenosine monophosphate (cAMP) levels were increased about 8.5-fold in cells exposed to Forskolin. […] Four hours of exposure yielded the maximal increase in upregulation, about 2.5-fold, of the time points tested.
However, the effect size of PDE inhibition on PCSK1 transcript levels is less than that induced by AC agonism with forskolin. […] Again, increased PCSK1 transcription due to combination treatment with Forskolin and Roflumilast also increases prohormone processing of POMC to ACTH (FIG. 6E).

[5] = test system: cAMP; experiment: cAMP levels in hypothalamic arcuate-like (ARC) neurons (Hes Nkx2-1 hESC line); assay type: cell-based, human; settings: 10 μM Forskolin, thirty minutes, day 37 of differentiation
Experimental: as §1, with “2.5-fold” for “˜2.5-fold”, “([…])” for “(D37)”

[6] = test system: PC1; experiment: PC1 protein levels in isolated islets from WT mice; assay type: cell-based, mouse; settings: isolated islets from wild type mice, 25 μM and 50 μM Forskolin
[7] = Ratio of circulating proinsulin:insulin in wild type mice; assay type: in vivo, mouse; settings: single administration, ~4 hour fasted wild type mice
Experimental: The first in vivo study with MK0952 administered by oral gavage while forskolin was administered intraperitoneally one time to ˜4 hour fasted wild type mice was completed. […] This difference likely reflects greater CNS penetrance of the MK0952, not the general relevance of a cyclase activator to therapy of PWS. No change in the ratio of circulating proinsulin:insulin was detected following administration MK0952 or Forskolin. Because the processing of proinsulin to insulin is already quite efficient in WT animals, it is in hindsight unlikely that it would further increase at fasting. However, these ‘baseline’ data are still valuable for assessing proinsulin to insulin processing under the setting of an intraperitoneal glucose tolerance test at […] glucose in both WT and Snord116^p−/m+ mice. Additionally, samples were collected for measurement of circulating cAMP levels, cortical proBDNF/BDNF, cerebellar Pcsk1, gastric Pcsk1, and gastric proghrelin/ghrelin, and finally pulmonary Pcsk1 transcript and cAMP levels.

[8] = test system: PDE4; settings: read-out: IC50 (intrinsic potency, PDE4 inhibitor); cited from earlier work
[9] = test system: whole blood; settings: cited from earlier work
[10] = cited from earlier work; remark: listed apart in the source

CCOc1cc([C@@H](CS(C)(=O)=O)N2C(=O)c3cccc(NC(C)=O)c3C2=O)ccc1OC [Apremilast]
PDE4 selectivity [1]: Selective | Brain penetration ([2]; PDE4 inhibitors, Table 1A): None

C=C[C@@]1(C)CC(=O)[C@]2(O)[C@@]3(C)[C@@H](O)CCC(C)(C)[C@@H]3[C@H](OC(=O)CCN(C)C)[C@H](OC(C)=O)[C@@]2(C)O1.Cl [FD5]
AC isoforms activated [3]: AC5 (AC5 expressed in heart,

C=C[C@@]1(C)CC(=O)[C@]2(O)[C@@]3(C)[C@@H](O)CCC(C)(C)[C@@H]3[C@H](O)[C@H](OC(C)=O)[C@@]2(C)O1 [Forskolin]
maximal increase in PCSK1 upregulation ([4]; iPSC-derived neurons (line 1043D3), 10 μM Forskolin, four hours): about 2.5 fold | PCSK1 transcript levels increase ([4]; iPSC-derived neurons exposed to 10 μM Forskolin): 2-3 fold | cAMP levels increase [5]: about 8.5 fold | PC1 protein levels increase [6]: ~3 fold | Brain penetration ([2]; adenylate cyclase activators, Table 2): Yes

CCn1ncc2c(NC3CCOCC3)c(-c3nnc(Cc4sc(C)nc4C)o3)cnc21 [GSK356278]
PDE4 selectivity [1]: Selective | Brain penetration ([2]; PDE4 inhibitors, Table 1A): Good

CC(C)Cn1c(=O)n(C)c(=O)c2[nH]cnc21 [IBMX, 3-isobutyl-1-methylxanthine]
PDE4 selectivity [1]: nonselective

CC(C)C(=O)c1c(C(C)C)nn2ccccc12 [Ibudilast]
Brain penetration ([2]; PDE4 inhibitors, Table 1A): Yes

O=C(NC1CC1)c1cn(-c2cccc(-c3ccc([C@@H]4C[C@H]4C(=O)O)c(F)c3)c2)c2ncccc2c1=O [MK0952]
PCSK1 transcription, MK0952 as single agent in vitro ([4]; iPSC-derived neurons): only been found to increase PCSK1 transcription in combination with Forskolin | ratio of circulating proinsulin:insulin [7]: No change | IC50 [8]: 0.6 nM | IC50 [9]: 555 nM | PDE4 selectivity [1]: selective | Brain penetration ([2]; PDE4 inhibitors, Table 1A): brain-penetrant and yes

CC(=O)N[C@@H](C)c1cc(Cl)ccc1C1CCN(C(=O)[C@@H]2CN(C(C)(C)C)C[C@H]2c2ccc(F)cc2F)CC1 [MK-0493]
efficacy for weight loss in non-genetic obese [10]: animal models but limited

O=C(Nc1c(Cl)cncc1Cl)c1ccc(OC(F)F)c(OCC2CC2)c1 [Roflumilast]
PCSK1 transcript levels, single agent ([4]; iPSC-derived neurons Day 40 (1043D3 line), 1 mM): increases | PDE4 selectivity [1]: Selective | Brain penetration ([2]; PDE4 inhibitors, Table 1A): limited

Cn1c(=O)c2[nH]cnc2n(C)c1=O [Theophylline]
PCSK1 transcript levels, single agent ([4]; D34 iPSC-derived hypothalamic ARC neurons (1023A line), 10 mM): increases
